Source: ChEMBL document CHEMBL4265871, “Novel alkylated azoles as potent antifungals” (Eur J Med Chem, 2017)

Assays:
A549 = test: Toxicity in human A549 cells assessed as reduction in cell viability up to 7.8 ug/ml incubated for 24 hrs by resazurin dye based assay; settings: a549, 24 h
Candida albicans [1] = test: Fungicidal activity against Candida albicans ATCC 10231 assessed as reduction in microbial growth at 4 times MIC incubated for 9 hrs by time kill assay; assay type: functional
Candida albicans [2] = test: Effect on sterol composition in Candida albicans ATCC 64124 assessed as eburicol level at 1.95 ug/mL incubated for 10 mins by LC-MS analysis (reference value: 6.28%)
Candida albicans [3] = test: Effect on sterol composition in Candida albicans ATCC 64124 assessed as unknown sterol level at 1.95 ug/mL incubated for 10 mins by LC-MS analysis (reference value: 2.67 to 6.98%)
Candida albicans [4] = test: Effect on sterol composition in Candida albicans ATCC 64124 assessed as lanosterol level at 1.95 ug/mL incubated for 10 mins by LC-MS analysis (reference value: 29.38%)
Candida albicans [5] = test: Effect on sterol composition in Candida albicans ATCC 10231 assessed as unknown sterol level at 0.125 ug/mL incubated for 10 mins by GC-MS analysis (reference value: 1.88 to 2.78%)
Candida albicans [6] = test: Effect on sterol composition in Candida albicans ATCC 64124 assessed as ergosterol level at 1.95 ug/mL incubated for 10 mins by LC-MS analysis (reference value: 54.72%)
Candida albicans [7] = test: Effect on sterol composition in Candida albicans ATCC 10231 assessed as ergosterol level at 0.125 ug/mL incubated for 10 mins by GC-MS analysis (reference value: 91.15%)

CCCCCCCCC(O)(Cn1cncn1)c1ccc(F)cc1F (stereo not drawn)
Activity (A549): Non-Toxic

CCCCCCC(O)(Cn1cncn1)c1ccc(F)cc1F (stereo not drawn)
Activity (Candida albicans [1]): >=2 log10CFU

CCCCCCC(O)(Cn1cncn1)c1ccc(Cl)cc1Cl (stereo not drawn)
Activity (Candida albicans [2]): 47.97% | Activity (Candida albicans [3]): 4.25 - 13.04% | Activity (Candida albicans [4]): 28.99% | Activity (Candida albicans [5]): 4.36 - 5.57% | Activity (Candida albicans [6]): 5.73% | Activity (Candida albicans [7]): 49%
